# Article PMC8717366, “Synthesis and Pharmacological Characterization of Visabron, a Backbone Cyclic Peptide Dual Antagonist of α4β1 (VLA-4)/α9β1 Integrin for Therapy of Multiple Sclerosis” (JACS Au, 2021)
# Where two headings read alike, the source gives them in different places. Numbered stars: 1 amine (or outer) side, 2 acyl side, 3 side chain; on linkers, the order of the positions; unused ones are H or OH. Bridge positions count the residues as written; N and C are the ends. Square brackets hold non-standard residues; d marks the D form. Peptide text beside a SMILES is read from it. N(2-Aminoethyl)Gly = O=C(CN(CCN[*:3])[*:1])[*:2]; CO = O=C([*:1])[*:2]; Nlys = NCCCCNCC(=O)O
# Assays:
# [1] = tested on: U937 macrophages-VCAM-1 (α4β1, αMβ2, α3β1, α6β1); test: Adhesion of U937 macrophages to immobilized VCAM-1; type: cell-based, human
# Method: Cell adhesion assay was carried out as previously described[47] with minor modifications. The day before the experiment, each well was coated with VCAM-1 (3 mg/mL) immobilized on the 96-well plate in PBS by overnight incubation at 4 °C. Thereafter, nonspecific binding was blocked by incubating the wells with 1% (w/v) bovine serum albumin (BSA) in Hank’s Balanced Salt Solution (HBSS) containing 5 mM MgCl2 at room temperature for 1 h before use. The cells were labeled by incubation with 12.5 μM 5-chloromethylfluorescein diacetate (CMFDA) in HBSS without 1% BSA at 37 °C for 30 min. The labeled cells were then centrifuged at 1000 rpm and washed twice with HBSS containing 1% BSA to remove excess CMFDA. Labeled cells (about 1 × 10^5 cells/well) were plated on each well in the presence or absence of visabrons and incubated at 37 °C for 60 min. Unbound cells were removed by washing the wells three times with 1% (w/v) BSA in HBSS, and bound cells were lysed by the addition of 0.5% Triton X-100 (diluted in DDW). The fluorescence in each well was quantified with a SPECTRAFluor Plus plate reader (Tecan), at λex = 485 nm and λem = 530 nm. To determine the number of adhered cells from the fluorescence values, a standard curve was generated by serial dilution of known numbers of CMFDA-labeled cells.
# [2] = Single-dose toxicity: blood cell counting and biochemistry analyses; type: in vivo, C57BL/6 male mice
# Lck kinase = target: T1, Lck kinase (Homo sapiens, UniProt P06239); test: SafetyScreen44 enzyme inhibition, Lck kinase; type: biochemical
# T1 construct: purchased Eurofins Cerep-Panlabs (contract screen) SafetyScreen44
# Method: Screening of potentially significant off-target effects to binding and enzyme targets was performed via SafetyScreen44 offered by Eurofins Cerep-Panlabs. Visabron c (4–4) was tested at 1 and 0.1 mM. Compound binding was calculated as the percentage of inhibition of the binding of a radioactively labeled ligand specific for each target. The compound enzyme inhibitory effect was calculated as the percentage of inhibition of control enzyme activity. Results showing inhibition higher than 40% were considered to represent significant effects of the tested compound. Results showing inhibition lower than 25% as obtained with 0.1 mM Visabron c (4–4) were not considered significant and were mostly attributable to the variability of the signal around the control level. In each experiment, the respective reference compound was tested concurrently with visabron c (4–4), and the data were compared with historical values determined at Eurofins. The experiment was statistically accepted in accordance with the Eurofins validation standard operating procedure.
# [3] = U937 treated with PMA (10 ng/mL) for 24 h, read-out: IC50 U937 macrophages-VCAM-1 PMA
# [4] = untreated U937, read-out: IC50 U937 macrophages-VCAM-1 control
# [5] = blood 24 hours after i.v. 500 mg/kg, n=5
# T1 sequence (P06239 whole entry): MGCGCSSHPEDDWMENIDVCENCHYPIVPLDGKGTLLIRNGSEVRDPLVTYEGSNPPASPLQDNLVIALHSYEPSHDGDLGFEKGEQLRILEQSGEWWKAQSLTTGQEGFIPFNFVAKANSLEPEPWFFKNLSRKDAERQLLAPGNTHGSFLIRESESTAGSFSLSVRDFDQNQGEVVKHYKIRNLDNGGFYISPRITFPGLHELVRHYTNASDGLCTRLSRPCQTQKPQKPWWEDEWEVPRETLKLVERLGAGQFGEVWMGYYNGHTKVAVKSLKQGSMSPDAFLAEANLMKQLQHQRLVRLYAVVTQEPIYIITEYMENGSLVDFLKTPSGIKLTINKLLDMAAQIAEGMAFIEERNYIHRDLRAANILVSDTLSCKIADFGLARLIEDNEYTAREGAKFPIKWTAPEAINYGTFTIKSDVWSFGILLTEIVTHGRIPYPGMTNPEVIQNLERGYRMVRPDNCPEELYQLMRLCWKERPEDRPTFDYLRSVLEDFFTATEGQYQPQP
smiles,measurement,setting,value
CSCC[C@@H]1NC(=O)[C@H]([C@@H](C)O)NC(=O)CN(C(=O)[C@@H](N)CCCCN)CCNC(=O)NCCN(CC(=O)N[C@@H](CC(C)C)C(N)=O)C(=O)[C@H](CC(=O)O)NC(=O)[C@H](CC(C)C)NC1=O [visabron c (2–2)] (H-K[N(2-Aminoethyl)Gly]TMLD[N(2-Aminoethyl)Gly]L-NH2; linker 2-7 via CO),IC50,[1]; [3],16 µM
same,IC50,[1]; [4],53 µM
CSCC[C@@H]1NC(=O)[C@H]([C@@H](C)O)NC(=O)CN(C(=O)[C@@H](N)CCCCN)CCCCNC(=O)NCCCCN(CC(=O)N[C@@H](CC(C)C)C(N)=O)C(=O)[C@H](CC(=O)O)NC(=O)[C@H](CC(C)C)NC1=O [visabron c (4–4)] (H-K[Nlys]TMLD[Nlys]L-NH2; linker 2-7 via CO),IC50,[1]; [3],10 µM
same,IC50,[1]; [4],11 µM
same,"Acute tolerability, single dose","[2]; 24 h after i.v. injection, C57BL/6 male mice",500 mg/kg
same,Blood count and electrolytes vs control mice,"[2]; 24 hours from i.v. injection, dose printed 250 mg/kg in this block",No significant differences
same,ALP,[2]; [5],84±7 U/L
same,ALT,[2]; [5],41±4 U/L
same,AST,[2]; [5],92±11 U/L
same,Albumin,[2]; [5],2.8±0.2 gr/dL
same,BUN,[2]; [5],14 ± 3.2 mg/dL
same,Calcium,[2]; [5],9.8 ± 1.2 mg/dL
same,Chloride,[2]; [5],105 ± 9.2 mmol/L
same,Cholesterol,[2]; [5],105 ± 8.6 mg/dL
same,Creatinine,[2]; [5],0.3 ± 0.07 mg/dL
same,Glucose,[2]; [5],279 ± 31 mg/dL
same,HCT,[2]; [5],45±2.5%
same,HGB,[2]; [5],14.8 ± 0.5 g/dL
same,MCH,[2]; [5],14.8 ± 0.6 pg
same,MCHC,[2]; [5],29 ± 1.3 g/dL
same,MCV,[2]; [5],48 ± 2.5 fL
same,MPV,[2]; [5],5 ± 0.9 fL
same,RBC,[2]; [5],9.0±0.9 m/ µL
same,RDW,[2]; [5],17.1±0.4%
same,WBC,[2]; [5],7.9±0.8 k/µL
same,Inhibitory effect on Lck,"Lck kinase; 100 μM, data not shown",not observed
same,Inhibition of Lck kinase activity,"Lck kinase; 1 mM, Figure 6",strongly inhibited
